This note sets out measurements from ChEMBL document CHEMBL3425504, “Lead optimization of spiropyrazolopyridones: a new and potent class of dengue virus inhibitors” (ACS Med Chem Lett, 2015).

Series [1] deals with dengue virus type 2. In words: Antiviral activity against dengue virus 2 infected in BHK21 cells incubated for 48 hrs by CFI assay. It is filed as functional, organism-based. To be noted: BHK-21, 48 h.
The nature of series [2]: Cytotoxicity against human HepG2 cells incubated for 96 hrs by CCK8 assay. The class given is cell-based.
Series [3] in a line: Lipophilicity, log P of the compound. The class given is physicochemical. To be noted: octanol/water.
The nature of series [4]: Hepatic extraction ratio in mouse liver microsomes. The class given is ADME. To be noted: read-out: ERH.
Series [5] is described as follows: Half life in mouse liver microsomes. It is filed as ADME. Background: Liver microsomes are vesicles of endoplasmic reticulum, rich in cytochrome P450 enzymes.
A short description of series [6]: Solubility in pH 6.8 buffer.
Series [7] has as its system dengue virus type 2. Put plainly: Antiviral activity against dengue virus 2 TSV01 in AG129 mouse model of dengue viremia assessed as log reduction in virus plaques at 25 mg/kg, po BID for 3 days relative to untreated control. It is filed as functional, organism-based. Details: dose 25 mg/kg.
Series [8] concerns dengue virus type 2. In words: Antiviral activity against dengue virus 2 infected in human A549 cells incubated for 48 hrs by viral titer reduction assay. It is filed as functional, organism-based. To be noted: A549, 48 h.
Series [9] is described as follows: Cmax in Wistar rat at 25 mg/kg, po after 0.17 to 24 hrs by LC-MS/MS method. The settings on record: in vivo. The class given is ADME, organism-based. Also on record: dose 25 mg/kg, route oral.
Series [10] in a line: Tmax in Wistar rat at 25 mg/kg, po after 0.17 to 24 hrs by LC-MS/MS method. The class given is ADME, organism-based. Also on record: dose 25 mg/kg, route oral. The settings on record: in vivo.
Series [11] can be described thus: AUC (0 to 24 hrs) in Wistar rat at 25 mg/kg, po after 0.17 to 24 hrs by LC-MS/MS method. It is filed as ADME, organism-based. Also on record: time < 24 hr, dose 25 mg/kg, route oral. To be noted: plasma.
A short description of series [12]: Absolute oral bioavailability in Wistar rat at 25 mg/kg after 0.17 to 24 hrs by LC-MS/MS method. It is filed as ADME, organism-based. To be noted: in vivo.
Series [13] in a line: Plasma clearance in Wistar rat at 5 mg/kg, iv after 0.17 to 24 hrs by LC-MS/MS method.
Series [14] is described as follows: Terminal half-life in Wistar rat at 5 mg/kg, iv after 0.17 to 24 hrs by LC-MS/MS method. To be noted: in vivo, read-out: beta t1/2 (converted).
In the next series the test system is Rattus norvegicus. Put plainly: Volume of distribution at steady state in Wistar rat at 5 mg/kg, iv after 0.17 to 24 hrs by LC-MS/MS method. The settings on record: in vivo.
In series [15] the test system is dengue virus type 2. Put plainly: Antiviral activity against dengue virus 2 TSV01 in AG129 mouse model of dengue viremia assessed as log reduction in virus plaques at 50 mg/kg, po BID for 3 days relative to untreated control. It is filed as functional.
In series [16] the test system is dengue virus type 2. In words: Antiviral activity against dengue virus 2 TSV01 in AG129 mouse model of dengue viremia assessed as log reduction in virus plaques at 100 mg/kg, po QD for 3 days relative to untreated control.

The structures appear in SMILES notation. Converted amounts (≈) assume the structure as drawn. The source made the active and inactive calls. The calls are words filed in the database; no cut-off is given here.

`O=C1C[C@]2(C(=O)Nc3ccc(Cl)cc32)c2cnn(Cc3ccc(C(F)(F)F)cc3)c2N1`: the EC50 (usually the concentration that produces a half-maximal response) in the series with dengue virus type 2 [1] was determined as 0.021 µM. Moreover, the CC50 – broadly, the concentration that lowers cell viability or growth by half – at 96 h in [2] is above 10 µM. Further, the logP (commonly a log measure of how a compound divides between an organic and an aqueous phase) in series [3] stood at 4.1. Also, the hepatic extraction ratio in series [4] was found to be 0.49. The compound further displayed a half-life in [5] of 62 min. Moreover, in [6], the solubility (commonly the dissolved amount per volume that the medium holds) turned out to be 27 µM (≈ 12.1 µg/mL).

In the series with dengue virus type 2 [1], `O=C1C[C@@]2(C(=O)Nc3ccc(Cl)cc32)c2cnn(Cc3ccc(C(F)(F)F)cc3)c2N1` had a concentration for a half-maximal effect (EC50) of 3.9 µM. This compound had a CC50 at 96 h in series [2] above 10 µM.

`O=C1CC2(C(=O)Nc3ccc(Cl)cc32)c2cnn(Cc3ccc(C(F)(F)F)cc3)c2N1` (racemic): the midpoint of the response in the series with dengue virus type 2 [1], the EC50, lay at 0.025 µM. The half-maximal cytotoxic concentration (CC50) at 96 h in [2] is above 10 µM.

`O=C1CC2(CNc3ccc(Cl)cc32)c2cnn(Cc3ccc(Cl)cc3)c2N1` (racemic) registered a concentration for a half-maximal effect (EC50) with dengue virus type 2 [1] of 1.1 µM. This compound yielded a CC50 at 96 h in series [2] above 10 µM.

On to `O=C1CC2(C(=O)Nc3ccc(Cl)cc32)c2cnn(Cc3ccc(Cl)cc3)c2N1` (racemic), for which, in the series with dengue virus type 2 [1], the EC50 turned out to be 0.051 µM.

`O=C1CC2(C(=O)Nc3ccc(Cl)cc32)c2cnn(CC3CCC(F)(F)CC3)c2N1` (racemic): the response in the series on dengue virus type 2 [1] was half-maximal at 22.5 µM (EC50). The compound further showed a cytotoxic concentration (CC50) at 96 h in series [2] above 10 µM.

With `CN1C(=O)[C@]2(CC(=O)Nc3c2cnn3Cc2ccc(Cl)cc2)c2cc(Cl)ccc21`, the EC50 in the series on dengue virus type 2 [1] came to 0.006 µM. This compound returned a half-maximal cytotoxic concentration (CC50) at 96 h in series [2] above 10 µM. In series [3], this compound had a logP of 4.6. Moreover, the hepatic extraction ratio in series [4] is 0.91. Besides, the half-life in series [5] was determined as 5.8 min. The concentration in solution in series [6] (solubility) was 161 µM (≈ 68.8 µg/mL).

In the case of `O=C1CC2(C(=O)Nc3ccc(Cl)cc32)c2cnn(Cc3cccc(Cl)c3)c2N1` (racemic), in the series with dengue virus type 2 [1], the EC50 came out at 3.9 µM. Further, the CC50 at 96 h in [2] was above 10 µM.

In the series with dengue virus type 2 [1], `O=C1CC2(C(=O)Nc3ccc(Cl)cc32)c2cnn(Cc3ccc(Cl)nc3)c2N1` (racemic) returned an EC50 of 32.8 µM. This compound had a CC50 at 96 h in [2] above 10 µM.

In the series with dengue virus type 2 [1], `O=C1C[C@@]2(C(=O)Nc3ccc(Cl)cc32)c2cnn(Cc3ccc(Cl)cn3)c2N1` displayed an EC50 of 18.4 µM. This compound also yielded a CC50 at 96 h in series [2] above 10 µM.

`O=C1Nc2ccc(Cl)cc2C12CCNc1c2cnn1Cc1ccc(Cl)cc1` (racemic) returned an EC50 in the series on dengue virus type 2 [1] of 4 µM. The compound also yielded a half-maximal cytotoxic concentration (CC50) at 96 h in series [2] of 8.1 µM.

Compound `O=C1C[C@@]2(C(=O)Nc3ccc(Cl)cc32)c2cnn(Cc3ccc(Cl)cc3)c2N1` returned an EC50 in the series on dengue virus type 2 [1] of 2.71 µM.

Consider `O=C1CC2(C(=O)Nc3ccc(Cl)cc32)c2cnn(Cc3ccccc3Cl)c2N1` (racemic), for which, in the series with dengue virus type 2 [1], the EC50 turned out to be 1.7 µM. For the same compound, the CC50 at 96 h in series [2] was above 10 µM.

Turning to `C#C[C@@]1(O)[C@H](O)[C@@H](CO)O[C@H]1n1ccc2c(N)ncnc21`, the inhibition entry in the series on dengue virus type 2 [7] was “Active”.

With `O=C1CC2(C(=O)Nc3ccc(Cl)cc32)c2cnn(Cc3ccc(Cl)cn3)c2N1` (racemic), it took 0.67 µM to reach a half-maximal effect in the series with dengue virus type 2 [1] (EC50). This compound showed a CC50 at 96 h in [2] of 33 µM.

As for `O=C1C[C@]2(C(=O)Nc3ccc(Cl)cc32)c2cnn(Cc3ccc(Cl)cc3)c2N1`, the EC50 with dengue virus type 2 [1] and in the series on dengue virus type 2 [8] was 0.012 µM in each case. In [2], the CC50 at 96 h was above 10 µM. This compound also gave a logP in series [3] of 4.9. In [4], the hepatic extraction ratio was determined as 0.66. Further, the half-life in [5] is 31 min; in series [14], 228 min. Also, the Cmax (commonly the highest concentration seen after dosing) in [9] is 780 ng/mL. Also, in series [10], the time of peak concentration (Tmax) (usually the time from dosing to the highest level) came to 120 min. Moreover, the AUC(0-t) (commonly the area under the concentration-time curve up to a stated or last time point) at 24 h in [11] came out at 9500 ng·h/mL. Also, in series [12], the bioavailability (in general, dose-corrected exposure relative to a reference, in per cent) was 33%. Also, the solubility in [6] turned out to be 11 µM (≈ 4.55 µg/mL). Further, the clearance (in general, the volume of plasma or blood freed of the substance per unit of time) in series [13] was 15.1 mL/min/kg. The Vdss (in general, a proportionality between amount in the body and measured concentration, not a real space) in the series on Rattus norvegicus stood at 4.3 L/kg.

Regarding `O=C1CC2(C(=O)Nc3ccc(C(F)(F)F)cc32)c2cnn(Cc3ccc(Cl)cc3)c2N1` (racemic), the concentration giving a half-maximal response (EC50) in the series on dengue virus type 2 [1] is 1.3 µM. Also, in [2], the half-maximal cytotoxic concentration (CC50) at 96 h was above 10 µM.

In the series with dengue virus type 2 [1], `O=C1CC2(C(=O)Nc3ccc(Cl)cc32)c2cnn(Cc3ncc(Cl)cn3)c2N1` (racemic) gave an EC50 of 85.3 µM. This compound also returned a CC50 at 96 h in series [2] above 10 µM.

`CN1C(=O)[C@@]2(CC(=O)Nc3c2cnn3Cc2ccc(Cl)cc2)c2cc(Cl)ccc21` yielded an EC50 in the series on dengue virus type 2 [1] of 0.772 µM. In addition, the CC50 at 96 h in series [2] is above 10 µM.

For the compound `O=C1C[C@]2(C(=O)Nc3ccc(Cl)cc32)c2cnn(Cc3ccc(Cl)cn3)c2N1`, the results for the EC50 in the series with dengue virus type 2 [1] and with dengue virus type 2 [8] were 0.23 µM and 0.042 µM, respectively. This compound also showed a CC50 at 96 h in series [2] of 33 µM. The lipophilicity (logP) in series [3] was found to be 2.8. The hepatic extraction ratio in [4] is 0.71. Also, the half-life is 24 min in [5] and 78 min in series [14]. In series [9], this compound displayed a peak concentration (Cmax) of 3860 ng/mL. In addition, the Tmax in series [10] came to 10.2 min. The compound further registered an area under the curve AUC(0-t) at 24 h in series [11] of 13800 ng·h/mL. In addition, in [12], the bioavailability came to 63%. Moreover, the FC with dengue virus type 2 [15] and with dengue virus type 2 [16] was 1.9 in each case. The amount in solution in [6] (solubility) came to 504 µM (≈ 209 µg/mL). The same compound yielded a clearance in [13] of 18.8 mL/min/kg. The compound also displayed a Vdss in the series with Rattus norvegicus of 3 L/kg.

`O=C1CC2(C(=O)Nc3ccc(Cl)cc32)c2cnn(-c3ccc(Cl)cc3)c2N1` (racemic) showed an EC50 in the series with dengue virus type 2 [1] of 32.5 µM. Also, in [2], the half-maximal cytotoxic concentration (CC50) at 96 h is above 10 µM.

`CN1C(=O)CC2(C(=O)Nc3ccc(Cl)cc32)c2cnn(Cc3ccc(Cl)cc3)c21` (racemic) displayed a concentration for a half-maximal effect (EC50) in the series with dengue virus type 2 [1] of 0.42 µM. This compound had a cytotoxic concentration (CC50) at 96 h in series [2] above 10 µM.

With `COc1ccc(Cn2ncc3c2NC(=O)CC32C(=O)Nc3ccc(Cl)cc32)cc1` (racemic), the concentration for a half-maximal effect (EC50) in the series with dengue virus type 2 [1] was found to be 6.2 µM. The CC50 at 96 h in [2] is above 10 µM.

Consider `CN1C(=O)C2(CC(=O)Nc3c2cnn3Cc2ccc(Cl)cc2)c2cc(Cl)ccc21` (racemic), for which, in the series on dengue virus type 2 [1], the 50% effective concentration (EC50) was found to be 0.011 µM. Further, the cytotoxic concentration (CC50) at 96 h in [2] was above 10 µM.

As for `COc1ccc2c(c1)C1(CC(=O)Nc3c1cnn3Cc1ccc(Cl)cc1)C(=O)N2` (racemic), in the series with dengue virus type 2 [1], the concentration for a half-maximal effect (EC50) stood at 2.3 µM. This compound also had a half-maximal cytotoxic concentration (CC50) at 96 h in series [2] above 10 µM.

On to `O=C1CC2(C(=O)Nc3ccc(Br)cc32)c2cnn(Cc3ccc(Cl)cc3)c2N1` (racemic), for which a half-maximal response with dengue virus type 2 [1] (EC50) required 0.05 µM. Also, the 50% cytotoxic concentration (CC50) at 96 h in series [2] is above 10 µM.

On to `O=C1CC2(C(=O)Nc3ccc(Cl)cc32)c2cnn(CCc3ccc(Cl)cc3)c2N1` (racemic), for which the EC50 in the series on dengue virus type 2 [1] is 7.2 µM. In [2], this compound came in with a CC50 at 96 h above 10 µM.
